From PMC5078989, “Targeted inhibition of the COP9 signalosome for treatment of cancer” (Nature Communications, 2016)

Tested on: panel of cancer cell lines
Assay: Cell viability (CellTiter-Glo) dose-response across cancer cell line panel;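 further: after 72 h compound incubation with CellTiter-Glo ATP readout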
Type: cell-based, human
Conditions: Homo sapiens
Source text: Next, we explored the effect of CSN5 inhibition on the viability of cancer cells. To obtain a comprehensive picture, we generated dose–response curves with a CSN5 inhibitor across more than 500 cancer cell lines in a previously described standardized setting[47] (Supplementary Data 1).
A standardized CellTiter-Glo Assay (Promega #G7570) based on the quantification of ATP was applied according to the manufacturer's protocol to measure the amount of viable cells in culture. In brief, cells were seeded into 384-well plates at optimal density for each cell line. After 4 h, compounds were added at different concentrations in growth medium and incubated for another 72 h in a humidifying chamber at 37 °C and 5% CO2. […] EC50 values were calculated from the plot of percentage of inhibition versus inhibitor concentration using the nonlinear regression analysis software Origin 7.5SR6 (OriginLab Corp.).

EC50 (HCC-1833 cells): 10.6 µM | EC50 (HCT-15, HCT-15 cells): 6.96 µM | EC50 (HD-MY-Z cells): 3.49 µM | EC50 (HEC-50B, HEC-50B cells): 13 µM | EC50 (HEC-108 cells): 14.7 µM | EC50 (HEC-151 cells): 11.1 µM | EC50 (HEC-265 cells): 14.2 µM | EC50 (HEL 92.1.7, HEL 92.1.7 cells): 7.27 µM | EC50 (HEL, HEL cells): 6.98 µM | EC50 (HEY A8, Hey-A8 cells): 12.9 µM | EC50 (HL-60, HL-60 cells): 15.7 µM | EC50 (HLC-1 cells): 11.5 µM | EC50 (HLE, HLE cells): 15.5 µM | EC50 (HLF, HLF cells): > 30 µM | EC50 (HMC-1-8 cells): 15.3 µM | EC50 (HPBALL, HPB-ALL cells): 14.1 µM | EC50 (HRT-18, HRT-18 cells): 9.14 µM | EC50 (HSC-2, HSC-2 cells): 23.9 µM | EC50 (HSC-3, HSC-3 cells): 12.7 µM | EC50 (HSC-4, HSC-4 cells): 10 µM | EC50 (HT-29, HT-29 cells): 12.4 µM | EC50 (Hep 3B2.1-7 cells): 11.1 µM | EC50 (Hep3B, Hep3B cells): 14.2 µM | EC50 (Hs 294T, Hs 294T cells): 11.7 µM | EC50 (Hs766T, Hs 766T cells): 24.2 µM | EC50 (Hs 852.T cells): 15.4 µM | EC50 (Hs 936.T cells): 17.2 µM | EC50 (Hs 944.T cells): 15.3 µM | EC50 (HuG1-N cells): 10.6 µM | EC50 (HuP-T3, HUP-T3 cells): 23.8 µM | EC50 (HuP-T4, HUP-T4 cells): 11 µM | EC50 (Huh-7, HuH-7 cells): 9.02 µM | EC50 (IGR-37, IGR-37 cells): 17.6 µM | EC50 (IGR-39, IGR-39 cells): 10.6 µM | EC50 (IGROV-1, IGROV1 cells): 12.3 µM | EC50 (IPC-298, IPC-298 cells): 10.3 µM | EC50 (Ishikawa, Ishikawa cells): 9.64 µM | EC50 (J82, J82 cells): > 30 µM | EC50 (JHH7, JHH-7 cells): 16.4 µM | EC50 (JHH-4, JHH-4 cells): 16.2 µM | EC50 (JHOM-1 cells): 8.92 µM | EC50 (JHOS-2 cells): > 30 µM | EC50 (JHUEM-2 cells): 15.3 µM | EC50 (JIMT-1, JIMT-1 cells): 13.1 µM | EC50 (JVM-2, JVM-2 cells): 13 µM | EC50 (K029AX cells): 17 µM | EC50 (KARPAS-422, KARPAS-422 cells): 12.5 µM | EC50 (KATO III, KATO III cells): 9.94 µM | EC50 (KBM-7, KBM-7 cells): 8.38 µM | EC50 (KE-97, KE-97 cells): 7.93 µM | EC50 (KLE, KLE cells): 12.6 µM | EC50 (KMM-1, KMM-1 cells): 10.6 µM | EC50 (KMRC-1, KMRC-1 cells): 17.7 µM | EC50 (KMRC-20 cells): 18.5 µM | EC50 (KMS-11, KMS-11 cells): 28.6 µM | EC50 (KNS-62, KNS-62 cells): 15.4 µM | EC50 (KO52 cells): 18.3 µM | EC50 (KP-1N cells): 15 µM | EC50 (KS-1 cells): 15.6 µM | EC50 (KU-19-19, KU-19-19 cells): 16 µM | EC50 (KURAMOCHI cells): 10.6 µM | EC50 (KYSE-70, KYSE-70 cells): 10.4 µM | EC50 (KYSE-150, KYSE-150 cells): 10.7 µM | EC50 (KYSE-180, KYSE-180 cells): 14.1 µM | EC50 (KYSE-410, KYSE-410 cells): 15 µM | EC50 (Kasumi-3, Kasumi3 cells): 13 µM | EC50 (Kasumi-6 cells): 6.45 µM | EC50 (L3.3 cells): 20.2 µM | EC50 (L-363, L-363 cells): 9.54 µM | EC50 (L-428, L-428 cells): 11.8 µM | EC50 (LC-1F cells): 16.3 µM | EC50 (LCLC-103H, LCLC-103H cells): 8.84 µM | EC50 (LIM1899 cells): 10.3 µM | EC50 (LIM2099 cells): 11.4 µM | EC50 (LIM2405 cells): 9.94 µM | EC50 (LIM2550 cells): 6.3 µM | EC50 (LMSU cells): 7.62 µM | EC50 (LN-18, LN-18 cells): 13 µM | EC50 (LN-229, LN-229 cells): 8.07 µM | EC50 (LOU-NH91, LOU-NH91 cells): 11.2 µM | EC50 (LOX IMVI, LOX IMVI cells): 9.19 µM | EC50 (LP-1, LP-1 cells): 11.9 µM | EC50 (LS180, LS 180 cells): 10.5 µM | EC50 (LS-513, LS513 cells): 8.14 µM | EC50 (LUDLU-1, LUDLU-1 cells): > 30 µM | EC50 (Li-7, Li-7 cells): 23.7 µM | EC50 (Lu-65, LU65 cells): 12.5 µM | EC50 (Lu-99, LU99 cells): 9.78 µM | EC50 (M-07e, M-07e cells): 16 µM | EC50 (MCAS cells): 12.5 µM | EC50 (MCC14/2 cells): 9.96 µM | EC50 (MDA-MB-157, MDA-MB-157 cells): 14.7 µM | EC50 (MDA-MB-175-VII, MDA-MB-175-VII cells): 19.8 µM | EC50 (MDA-MB-231, MDA-MB-231 cells): 15.3 µM | EC50 (MDA-MB-415, MDA-MB-415 cells): 13.4 µM | EC50 (MDA-MB-435S, MDA-MB-435S cells): 12 µM | EC50 (MDA-MB-436, MDA-MB-436 cells): 10.1 µM | EC50 (MDA-MB-453, MDA-MB-453 cells): 6.48 µM | EC50 (MDA-MB-468, MDA-MB-468 cells): 10.7 µM | EC50 (MDST8, MDST8 cells): 11.2 µM | EC50 (ME-180, ME180 cells): 11.9 µM | EC50 (MEL-HO cells): 10.9 µM | EC50 (MEL-JUSO, MEL-JUSO cells): 18.1 µM | EC50 (MES-SA, MES-SA cells): 12.5 µM | EC50 (MFE-280, MFE-280 cells): 10.8 µM | EC50 (MFE-296, MFE-296 cells): 10.5 µM | EC50 (MFM-223, MFM223 cells): 17.2 µM | EC50 (MINO, Mino cells): 7.97 µM | EC50 (MKN-1, MKN1 cells): 9.59 µM | EC50 (MKN-45, MKN-45 cells): 26.8 µM | EC50 (ML-2, ML-2 cells): 6.14 µM | EC50 (MM127 cells): 6.45 µM | EC50 (MM138 cells): 10.4 µM | EC50 (MM253 cells): 26.5 µM | EC50 (MM370 cells): 23 µM | EC50 (MM383 cells): 11.2 µM | EC50 (MM386 cells): 25.5 µM | EC50 (MM415 cells): 13.3 µM | EC50 (MM426 cells): 24.4 µM | EC50 (MM466 cells): 24.5 µM | EC50 (MM473, MM473 cells): 10.4 µM | EC50 (MM485 cells): 11.2 µM | EC50 (MM537 cells): 14 µM | EC50 (MM576 cells): 15.8 µM | EC50 (MM603 cells): 9.82 µM | EC50 (MOG-G-CCM cells): 10.9 µM | EC50 (MOLM-13, MOLM-13 cells): 6.66 µM | EC50 (MOLP-8, MOLP-8 cells): 6.91 µM | EC50 (MOLT-16, MOLT-16 cells): 5.34 µM
SMILES: COCc1ccccc1NCc1ccc([C@@H]2[C@H](O)CCCc3cncn32)c(-c2ccccc2Cl)c1 [CSN5i-2e, (5R,6R)-5-(2′-chloro-5-(((2-(methoxymethyl)phenyl)amino)methyl)-[1,1′-biphenyl]-2-yl)-6,7,8,9-tetrahydro-5H-imidazo[1,5-a]azepin-6-ol]
